What was measured:
[1] = molecular target: T1, CCR4 (Homo sapiens, UniProt P51679); test: Chemokine receptor panel (assays similar to Example 1 and 2), CCR4; assay type: binding
T1 sequence (P51679 1-360): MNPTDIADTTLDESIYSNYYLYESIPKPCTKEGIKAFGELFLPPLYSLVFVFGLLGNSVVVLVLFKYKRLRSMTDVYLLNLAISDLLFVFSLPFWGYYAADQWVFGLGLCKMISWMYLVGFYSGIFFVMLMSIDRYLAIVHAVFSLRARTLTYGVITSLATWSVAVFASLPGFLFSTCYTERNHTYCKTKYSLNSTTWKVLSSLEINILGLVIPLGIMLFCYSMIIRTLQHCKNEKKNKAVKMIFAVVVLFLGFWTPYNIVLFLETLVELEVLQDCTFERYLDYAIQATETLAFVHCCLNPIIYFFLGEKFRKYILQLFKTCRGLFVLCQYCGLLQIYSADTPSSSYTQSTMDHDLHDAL
Protocol: (§1) Membranes (80 μL of 1×10^6 cell equivalents/mL) were then added, giving a total incubation volume of 100 μL per well. The plates were incubated for 2 hours at room temperature.
(§2) HEK 293 transfectants were seeded at 5×10^4 cells per well in 96 well poly-D lysine coated black with clear bottom plates (Becton Dickinson) and cultured for 16 h at 37° C. with an atmosphere of 5% CO2/95% air to form confluent monolayers. The following day cells were loaded with 5 μM Flura 3 AM diluted in tyrodes solution (137 mM NaCl, 10 mM HEPES, 0.441 mM KH2PO4, 2.67 mM KCl, 1.8 mM CaCL2, 1 mM MgCl2) with 6.25 mM probenecid at pH7.4, 100 μl per well and incubated at 37° C. with an atmosphere of 5% CO2/95% air for 1 h. After which the loading media was removed and the cells washed twice with PBS/HEPES solution (100 μl per well) then overlayed with 50 μl assay buffer (tyrodes buffer without probenecid). 50 μl inhibitor compound or 50 μl 0.2% (v/v) DMSO carrier diluted in assay buffer was then added per well and incubated for 30 minutes at room temperature before the addition of 50 μl 3 mM Carbachol per well. Calcium flux responses were measured using a Fluorometric Imaging Plate Reader (Molecular Devices) for 3 minutes before the addition of either IL-8 (50 μl, 1×10^−7-3×10^−11 M final concentration) or GROalpha. […] Fluorescence readings were taken every 2 seconds for a total run time of 6 minutes.

[2] = molecular target: T2, GST-CXCR2 fusion protein (human CXCR2 residues G318 to L360) (Homo sapiens, UniProt P25025); test: [3H]Compound A radioligand binding to GST-CXCR2 C terminal tail; conditions: 20 nM [3H]Compound A, FIG. 21, average of three experiments
T2 construct: made in house; host or cells: E. coli
T2 sequence (P25025 with tags, fused parts or gaps): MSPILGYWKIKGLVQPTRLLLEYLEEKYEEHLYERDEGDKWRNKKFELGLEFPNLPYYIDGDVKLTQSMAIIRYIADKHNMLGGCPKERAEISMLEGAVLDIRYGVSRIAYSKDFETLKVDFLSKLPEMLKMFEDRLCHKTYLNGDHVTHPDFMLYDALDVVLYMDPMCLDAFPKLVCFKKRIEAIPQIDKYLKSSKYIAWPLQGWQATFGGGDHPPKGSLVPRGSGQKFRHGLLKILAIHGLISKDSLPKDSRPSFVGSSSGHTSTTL
Protocol: An expression construct which encodes for S. Japonicum glutathione-S-transferase (GST) fused to the last 43 amino acids of human CXCR2 (residues G318 to L360) was generated by standard molecular biological techniques.
The protein was expressed in E. coli and the resulting fusion protein was purified from the cell extract via chromatography using a 5 ml GSTrap column (Amersham) which binds GST containing proteins, and eluted using 10 mM reduced glutathione in the elution buffer. At the same time GST without a CXCR2 C-terminal tail was also expressed and purified as a control. Both proteins had the excess 10 mM glutathione removed using a XK26/10 desalting column (Amersham).
Protein solutions (50 μL dilutions starting at 1.28 mg/ml) of either GST-CXCR2 fusion or wild type GST were then added, giving a total incubation volume of 200 μL per well.
A GF-B filter plate was set up containing 50 μl of 1 mg/ml gelatine in PBS in each well, which was then filtered through the plate and discarded. […] After filtering, 100 μl filtrate was transferred to a lumaplate and dried down in a 50° C. oven overnight and then counted on the TopCount instrument (Packard BioScience)

[3] = molecular target: CCR5 (Homo sapiens, UniProt P51681); test: Chemokine receptor panel (assays similar to Example 1 and 2), CCR5; assay type: binding; conditions: CCR5, 10 uM
Chain of CCR5 (P51681 whole entry): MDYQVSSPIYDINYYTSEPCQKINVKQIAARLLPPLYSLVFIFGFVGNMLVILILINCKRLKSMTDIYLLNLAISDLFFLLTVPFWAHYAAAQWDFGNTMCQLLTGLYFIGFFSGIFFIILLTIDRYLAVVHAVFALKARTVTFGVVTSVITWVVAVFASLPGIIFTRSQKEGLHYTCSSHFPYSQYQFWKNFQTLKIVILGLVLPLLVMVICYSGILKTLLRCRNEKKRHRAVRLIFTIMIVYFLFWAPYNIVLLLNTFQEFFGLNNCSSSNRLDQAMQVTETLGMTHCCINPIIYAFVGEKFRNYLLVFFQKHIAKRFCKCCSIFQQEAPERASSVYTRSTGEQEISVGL
Protocol: as §1, §2

[4] = molecular target: T3, CXCR1 (Homo sapiens, UniProt P25024); test: Chemokine receptor panel (assays similar to Example 1 and 2), CXCR1; assay type: binding
T3 sequence (P25024 1-350): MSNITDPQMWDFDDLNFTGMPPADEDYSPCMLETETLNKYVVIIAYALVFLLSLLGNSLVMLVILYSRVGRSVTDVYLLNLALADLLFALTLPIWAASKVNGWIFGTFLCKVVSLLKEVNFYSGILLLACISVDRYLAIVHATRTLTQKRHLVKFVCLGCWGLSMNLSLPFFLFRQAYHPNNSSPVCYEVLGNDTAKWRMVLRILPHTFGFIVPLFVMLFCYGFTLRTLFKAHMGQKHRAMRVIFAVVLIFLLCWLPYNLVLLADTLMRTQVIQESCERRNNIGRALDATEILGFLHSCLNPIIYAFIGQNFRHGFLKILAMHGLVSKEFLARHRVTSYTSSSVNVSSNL
Text: (§3) All points were reproduced in triplicate on each plate.

[5] = molecular target: T4, CX3CR1 (Homo sapiens, UniProt P49238); test: biochemical
T4 sequence (P49238 1-355): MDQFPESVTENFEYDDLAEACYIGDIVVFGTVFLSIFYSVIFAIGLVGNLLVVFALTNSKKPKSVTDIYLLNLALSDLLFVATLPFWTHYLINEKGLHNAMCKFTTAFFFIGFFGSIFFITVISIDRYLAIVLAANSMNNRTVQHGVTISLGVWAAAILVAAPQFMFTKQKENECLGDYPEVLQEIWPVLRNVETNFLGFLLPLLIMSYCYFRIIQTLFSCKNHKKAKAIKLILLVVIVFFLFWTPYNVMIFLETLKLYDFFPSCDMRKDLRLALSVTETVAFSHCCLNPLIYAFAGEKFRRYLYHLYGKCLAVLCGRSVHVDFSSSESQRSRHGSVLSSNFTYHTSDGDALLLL

[6] = molecular target: T5, CCR1 (Homo sapiens, UniProt P32246); test: Chemokine receptor panel (assays similar to Example 1 and 2), CCR1; assay type: binding; conditions: CCR1, 10 uM
T5 sequence (P32246 1-355): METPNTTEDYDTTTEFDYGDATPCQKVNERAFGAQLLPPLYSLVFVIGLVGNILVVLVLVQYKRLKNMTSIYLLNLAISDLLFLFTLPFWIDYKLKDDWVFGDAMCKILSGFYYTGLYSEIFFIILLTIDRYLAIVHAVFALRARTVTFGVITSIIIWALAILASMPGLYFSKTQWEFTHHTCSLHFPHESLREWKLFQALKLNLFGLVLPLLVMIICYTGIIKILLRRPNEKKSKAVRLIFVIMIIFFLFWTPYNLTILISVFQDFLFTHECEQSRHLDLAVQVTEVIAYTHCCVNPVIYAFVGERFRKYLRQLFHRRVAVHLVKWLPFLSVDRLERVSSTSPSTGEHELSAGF

[7] = molecular target: T6, CCR2b (Homo sapiens, UniProt P41597); test: Chemokine receptor panel (assays similar to Example 1 and 2), CCR2b; assay type: binding
T6 sequence (P41597 1-360 isoform P41597-2): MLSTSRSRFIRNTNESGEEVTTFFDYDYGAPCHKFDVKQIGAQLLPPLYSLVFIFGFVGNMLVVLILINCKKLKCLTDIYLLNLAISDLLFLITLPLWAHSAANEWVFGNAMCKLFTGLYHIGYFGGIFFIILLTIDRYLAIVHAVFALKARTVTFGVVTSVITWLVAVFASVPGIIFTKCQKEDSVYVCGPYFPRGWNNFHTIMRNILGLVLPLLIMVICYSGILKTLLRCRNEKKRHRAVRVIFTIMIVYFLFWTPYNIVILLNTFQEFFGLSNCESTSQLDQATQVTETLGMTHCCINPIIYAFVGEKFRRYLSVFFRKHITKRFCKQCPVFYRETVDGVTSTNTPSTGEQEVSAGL

[8] = molecular target: T7, CXCR2 (Homo sapiens, UniProt P25025); test: HEK FLIPR intracellular calcium assay, wild type CXCR2; assay type: cell-based; conditions: Compound A 30 nM (10 nM and 30 nM in Example 5), Compound B 100 nM
T7 construct: expressed in transfected cells
T7 sequence (P25025 1-360): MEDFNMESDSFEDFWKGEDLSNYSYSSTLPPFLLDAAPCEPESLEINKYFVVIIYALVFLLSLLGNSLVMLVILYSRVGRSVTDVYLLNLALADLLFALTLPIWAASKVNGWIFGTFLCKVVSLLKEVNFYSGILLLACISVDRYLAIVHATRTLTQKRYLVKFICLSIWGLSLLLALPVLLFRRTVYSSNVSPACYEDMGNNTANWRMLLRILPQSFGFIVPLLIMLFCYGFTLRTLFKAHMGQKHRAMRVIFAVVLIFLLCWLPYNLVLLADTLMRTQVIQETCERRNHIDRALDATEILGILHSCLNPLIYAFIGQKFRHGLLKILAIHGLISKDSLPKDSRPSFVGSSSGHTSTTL
Protocol: HEK cells, transfected with the human recombinant CXCR2 receptor, were grown to approximately 80% confluence in 225 cm^2 flasks in DMEM-Glutamax medium containing, non-essential amino acids, 10% (v/v) FCS in a humidified incubator at 37° C., 5% CO2. Cells were harvested from the flask using 10× trypsin at 37° C. for 1 to 2 minutes.
as §3

[9] = molecular target: T8, wild type GST (Schistosoma japonicum, UniProt P08515); test: [3H]Compound A radioligand binding to wild type GST control; conditions: 20 nM [3H]Compound A; FIG. 21, average of three experiments
T8 construct: made in house; host or cells: E. coli
T8 sequence (P08515 whole entry): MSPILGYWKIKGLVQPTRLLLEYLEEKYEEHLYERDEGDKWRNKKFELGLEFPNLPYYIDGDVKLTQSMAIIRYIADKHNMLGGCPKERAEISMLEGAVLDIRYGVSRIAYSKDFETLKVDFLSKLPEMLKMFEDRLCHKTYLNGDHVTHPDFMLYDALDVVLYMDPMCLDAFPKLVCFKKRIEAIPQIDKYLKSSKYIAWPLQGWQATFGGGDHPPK
Protocol: Protein solutions (50 μL dilutions starting at 1.28 mg/ml) of either GST-CXCR2 fusion or wild type GST were then added, giving a total incubation volume of 200 μL per well. The plates were incubated for 2 hours at room temperature.
A GF-B filter plate was set up containing 50 μl of 1 mg/ml gelatine in PBS in each well, which was then filtered through the plate and discarded. 100 μl filter mix (160 mg/ml charcoal (dextran coated) in PBS containing 1 mg/ml gelatine) was then filtered through the plate and then 150 μl assay mix was then filtered through the prepared filter plate (The charcoal catches the excess un-bound compound). After filtering, 100 μl filtrate was transferred to a lumaplate and dried down in a 50° C. oven overnight and then counted on the TopCount instrument (Packard BioScience)

[10] = molecular target: T9, human Chemokine receptor CXCR2 (Homo sapiens, UniProt P25025); test: CXCR2 membrane [125I]IL-8 radioligand binding assay; conditions: FIG. 2
T9 construct: expressed in transfected cells
T9 sequence (P25025 1-360): T7 sequence (P25025 1-360)
Protocol: HEK 293 cells were transfected with CXCR2 receptor using the lipofection reagent Fugene 6 (Roche). […] Stable HEK-CXCR2 transfectants were grown to approximately 80% confluence in 10-layer cell factories in DMEM medium containing 10% (v/v) foetal calf serum and glutamine (2 mM) in a humidified incubator at 37° C., 5% CO2. Cells were harvested from the flask using Accutase at 37° C. for 3 to 5 minutes.
Cells were resuspended on ice in 60 mL hypotonic buffer at a density of 2×10^7 cells/mL. Membranes were prepared on ice by homogenisaton using a polytron tissue homogenizer set at 22000 rpm. The membrane preparation was purified by sucrose gradient centrifugation. In each of 4 centrifuge tubes 15 mL of cell membranes was layered onto 10 mL 41% (w/v) sucrose solution and the tubes centrifuged at 140000 g for 1 hour at 4° C. […]
Following incubation, the plate containing the assay mixture was filter-washed with 200 μL cold HEPES-buffered salt solution using a Millipore vacuum manifold. The filtration plate was allowed to air dry then either the individual filters were punched out into polypropylene test tubes and the radioactivity measured by direct gamma counting using a Cobra II Gamma counter (Packard BioScience) for 1 minute per sample or alternatively, the whole filtration plate was placed in a carrier plate and 50 μL of MicroScint-O added to each well. […]

[11] = molecular target: T7, CXCR2; test: [3H]-Compound C binding assay on CXCR2 membranes; conditions: 20 nM [3H]Compound C, FIG. 3
Protocol: Following incubation, the plate containing the assay mixture was transferred to GF-B plates and filter-washed with cold HEPES-buffered salt solution using a Tomtec harvester. The filtration plate was allowed to air dry then 20 μl of MicroScint-0 added to each well. 96-well plate scintillation counting was performed using a TopCount instrument (Packard BioScience) for 1 minute per sample well.

C[C@H](CO)Nc1nc(SCc2cccc(Cl)c2F)nc2[nH]c(=O)sc12 [Compound A]
IC50 [1]: 7940 nM
radiolabelled binding to GST-CXCR2 fusion protein on addition of excess cold compound [2]: decrease in radiolabelled binding
inhibition at 10 µM [3]: 72%
IC50 [4]: 251 nM
IC50 [5]: 251 nM
inhibition at 10 µM [6]: 62%
IC50 [7]: 158 nM
activity (inhibition of IL-8-induced calcium release) [8]: active against CXCR2
compound binding to wild type GST control protein [9]: minimal compound binding

NS(=O)(=O)c1c(Cl)ccc(NC(=O)Nc2cccc(Cl)c2Cl)c1O [Compound B]
activity (inhibition of IL-8-induced calcium release) [8]: active against CXCR2

C[C@H](CO)Nc1nc(SCc2ccccc2)nc2nc(N)sc12 [Compound C]
inhibition of [125I]-IL-8 binding [10]: able to inhibit the binding
binding to CXCR2 / displacement of radio-labelled Compound C [11]: can bind to CXCR2

IL-8: C-X-C chemokine, endogenous CXCR2/CXCR1 agonist ligand; non-radioactive IL-8 used as competitor
inhibition of [125I]-IL-8 binding [10]: able to inhibit the binding

Source: patent US20090305321A1, “Assays for Allosteric Modulators of G-Protein Coupled Receptors (GPCRs)” (ASTRAZENECA AB, priority 2005, published 2009)
